Legend:
Fabry mice = experiment: Substrate reduction therapy in Fabry mouse model: Gb3 and lyso-Gb3 levels; assay type: in vivo; details: male and female Fabry mice treated 4 months from ~8 months old; GZ 452 60 and 120 mg/kg/day, GZ 161 20 mg/kg/day
Description: In the following experiments, mice dosed with GCS inhibitors at either ˜60 mg/kg/day of (S)-Quinuclidin-3-yl(2-(2-(4-fluorophenyl)thiazol-4-yl)propan-2-yl)carbamate (S)-2-hydroxysuccinate salt (hereinafter “GZ 452”) or ˜300 mg/kg/day of (1R,2R)-Octanoic acid[2-(2′,3′-dihydro-benzo[1,4] dioxin-6′-yl)-2-hydroxy-1-pyrrolidin-1-ylmethyl-ethyl]-amide-L-tartaric acid salt (hereinafter “GZ 638”) as a component of the pelleted food diet provided ad libitum. Lipid analysis was by ESI/MS as described in Marshall et al., PLoS ONE 5:e15033 (2010). As discussed in further detail below, treatment started when the mice were 3, 8 or 12 months of age to test the efficacy at different disease severities. Blood and urine was collected monthly and periodic tissue harvests provided materials to evaluate efficacy of the therapy (Gb3 and lyso-Gb3 levels). […] As further discussed below, the efficacy of SMT was affected by the age of the mice at the start of treatment. Generally, the older the mouse, the higher the levels of Gb3 stored and thus a longer period of treatment was required in order to affect similar therapeutic benefit (see FIG. 4). The experiments and results are described further below.
In this experiment, Fabry mice were treated with GCS inhibitors in their diet for 4 months starting at 8 months old. […] Age-matched wild-type levels (WT) are also shown. […]

WT mice = experiment: In utero exposure: brain GluCer in newborn WT mice; assay type: in vivo, mouse
Description: To determine if further benefits could be achieved by prenatal exposure to GZ 161, a subset of pregnant K14 females received GZ 161 in food using a formulation calculated to provide 20 mg/kg/day during the final 5-7 days of gestation. Females receiving GZ 161 were switched to standard diet after delivery and the pups received daily IP injections of GZ 161 at a dose of 5 mg/kg (10 μl per gram of body weight) starting at P 1. A set of WT pups born to females receiving the drug or standard formula was sacrificed immediately after birth to determine whether in utero exposure to GZ 161 could reduce brain GSL levels.
Quantitative sphingolipid analysis was performed by liquid chromatography and tandem mass spectrometry (LC/MS/MS) as previously described in Merrill et al., Methods 36: 207-224 (2005). Briefly, 10 μl of brain tissue homogenate (tissue weight/water:100 mg/ml) was extracted with 1.00 ml of an organic solvent mixture (97% acetonitrile, 2% methanol, and 1% acetic acid, v/v) and vortexed vigorously for 10 min. Extracted sphingolipids (GluCer and GluSph) were directly separated by hydrophilic liquid chromatography (Atlantis HILIC column, Waters Corp.) and analyzed by triple quadrupole tandem mass spectrometry (API 4000, Applied Biosystems/MDS SCIEX) and compared with sphingolipid standards (Matreya, LLC; Pleasant Gap, Pa.)
Values shown correspond to means and error bars represent standard error of the mean. Comparisons between groups were analyzed by a one-way analysis of variance followed by Tukey's multiple comparison test. Comparison of substrate reduction in utero was analyzed by the unpaired t test with Welch's correction. Kaplan-Meier survival curves were analyzed using the log-rank test equivalent to the Mantel-Haenszel test. All statistical analyses were performed using GraphPad Prism v4.0 (GraphPad Software, San Diego, Calif.). Differences between group means with p<0.05 were considered significant.

With `CC(C)(NC(=O)OC1CN2CCC1CC2)c1cccc(-c2ccc(F)cc2)c1` (stereo not shown) [GZ 161, Quinuclidin-3-yl(2-(4′-fluoro-[1,1′-biphenyl]-3-yl)propan-2-yl)carbamate] the “Gb3 in kidney tissue relative to untreated controls” value (Fabry mice) was “significantly reduced the amount of Gb3”, the “decrease in GluCer levels in the newborn mouse brain (P0)” value (WT mice; WT dams treated, 20 mg/kg/day in food) was about 5 fold and the “crossing the blood/placental barrier” value (WT mice; inferred from reduced GluCer in newborn brain after dosing pregnant WT mice) was “appears to cross the blood/placental barrier”. The “GluCer load in whole brain homogenates at birth (P0)” value (WT mice; pregnant WT mice, 20 mg/kg/day in food) was “reduces the GluCer load”.

From US9126993B2, “Glucosylceramide synthase inhibitors” (GENZYME CORPORATION, priority 2011, dated 2015)
